According to ChEMBL document CHEMBL1201862, “PubChem BioAssay data set” (2004):
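A five-concentration, 48-hour dose response in 96-well plates underlies each endpoint, interpolated linearly between surrounding concentrations. At the GI50, growth is halved.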 Activity calls are given as the source filed them. Rule as the data show it: active = GI50 up to about 1.1 µM and inactive = higher.

Tests used:
Assay in all cases: growth of human tumour cells (NCI), 48 h
[1] = system: OVCAR-5
[2] = system: 786-0
[3] = system: HOP-62
[4] = system: BT-549
[5] = system: RPMI-8226
[6] = system: COLO 205
[7] = system: MDA-MB-231
[8] = system: NCI/ADR-RES
[9] = system: T47D
[10] = system: MDA-MB-435
[11] = system: HL-60
[12] = system: TK-10
[13] = system: MCF7
[14] = system: Hs-578T
[15] = system: SN12C
[16] = system: MDA-N
[17] = system: KM-20L2
[18] = system: DMS-273
[19] = system: DMS-114
[20] = system: DLD-1

Structure (SMILES)	GI50 [1]	GI50 [2]	GI50 [3]	GI50 [4]	GI50 [5]	GI50 [6]	GI50 [7]	GI50 [8]	GI50 [9]	GI50 [10]	GI50 [11]	GI50 [12]	GI50 [13]	GI50 [14]	GI50 [15]	GI50 [16]	GI50 [17]	GI50 [18]	GI50 [19]	GI50 [20]
Clc1ccc(COc2ccccc2/C=N/c2c(-c3ccco3)nc3ccccn23)c(Cl)c1	> 100 µM (inactive)	28.2 µM (inactive)	32.9 µM (inactive)	30 µM (inactive)	29.9 µM (inactive)	38.9 µM (inactive)	20.2 µM (inactive)	30.6 µM (inactive)	24.7 µM (inactive)	14.5 µM (inactive)	27 µM (inactive)	36.2 µM (inactive)	12.5 µM (inactive)	36.9 µM (inactive)	25.8 µM (inactive)	23 µM (inactive)	–	–	–	–
CCOC(=O)/C=C(\C)c1ccc(C)cc1C	> 100 µM (inactive)	–	–	–	7.28 µM (inactive)	> 100 µM (inactive)	–	–	–	–	2.89 µM (inactive)	33.8 µM (inactive)	–	–	39.8 µM (inactive)	–	> 100 µM (inactive)	> 100 µM (inactive)	> 100 µM (inactive)	15.7 µM (inactive)
Cc1c2cc[n+](C)cc2c(COC2OC(CO)C(O)C2O)c2c3ccccc3n(C)c12 (configuration not stated)	> 100 µM (inactive)	–	58.6 µM (inactive)	–	99.5 µM (inactive)	> 100 µM (inactive)	–	> 97.7 µM (inactive)	–	–	> 100 µM (inactive)	–	> 100 µM (inactive)	–	6.85 µM (inactive)	–	31.6 µM (inactive)	> 89.9 µM (inactive)	46.3 µM (inactive)	> 100 µM (inactive)
CCc1cc2c(oc3cc4ccccc4cc32)c(=O)[nH]1	> 10 µM (inactive)	> 10 µM (inactive)	–	> 10 µM (inactive)	–	–	> 10 µM (inactive)	> 10 µM (inactive)	–	–	> 10 µM (inactive)	> 10 µM (inactive)	–	> 10 µM (inactive)	> 10 µM (inactive)	> 10 µM (inactive)	–	–	–	–
O=C1CC2(CCC(O)(c3ccccc3)C(C(=O)c3ccccc3)C2)C(=O)c2ccccc2N1 (configuration not stated)	> 100 µM (inactive)	–	> 100 µM (inactive)	> 100 µM (inactive)	–	> 100 µM (inactive)	> 100 µM (inactive)	> 100 µM (inactive)	> 100 µM (inactive)	> 100 µM (inactive)	> 100 µM (inactive)	> 100 µM (inactive)	> 100 µM (inactive)	> 100 µM (inactive)	> 100 µM (inactive)	> 100 µM (inactive)	–	–	–	–
C/C(=N\NC(=O)c1ccncc1)c1cccc(C(F)(F)F)c1	–	–	> 10 µM (inactive)	> 10 µM (inactive)	> 10 µM (inactive)	> 10 µM (inactive)	> 10 µM (inactive)	> 10 µM (inactive)	> 10 µM (inactive)	–	> 10 µM (inactive)	> 10 µM (inactive)	6.9 µM (inactive)	1.75 µM (inactive)	> 10 µM (inactive)	> 10 µM (inactive)	–	–	–	–
c1ccc2c(c1)c1ccccc1n2Cn1c2ccccc2c2ccccc21	> 100 µM (inactive)	–	> 100 µM (inactive)	> 100 µM (inactive)	> 100 µM (inactive)	–	> 100 µM (inactive)	> 100 µM (inactive)	> 100 µM (inactive)	> 100 µM (inactive)	> 100 µM (inactive)	> 100 µM (inactive)	–	–	> 100 µM (inactive)	> 100 µM (inactive)	–	–	–	–
OCc1cc2ccncc2c2c1[nH]c1ccccc12	3.95 µM (inactive)	–	–	–	6.31 µM (inactive)	6.82 µM (inactive)	–	–	–	–	4.84 µM (inactive)	11.8 µM (inactive)	–	–	5.42 µM (inactive)	–	–	4.04 µM (inactive)	6.38 µM (inactive)	3.96 µM (inactive)
Cc1oc2nc(N(C)C)n3cnnc3c2c1C	> 100 µM (inactive)	> 100 µM (inactive)	> 100 µM (inactive)	> 100 µM (inactive)	> 100 µM (inactive)	> 100 µM (inactive)	> 100 µM (inactive)	> 100 µM (inactive)	> 100 µM (inactive)	> 100 µM (inactive)	> 100 µM (inactive)	> 100 µM (inactive)	> 100 µM (inactive)	> 100 µM (inactive)	> 100 µM (inactive)	–	–	–	–	–
N=C(N)c1csc([C@@H]2O[C@H](CO)[C@@H](O)[C@H]2O)n1	–	–	–	–	> 100 µM (inactive)	–	–	–	–	–	> 100 µM (inactive)	> 100 µM (inactive)	–	–	> 100 µM (inactive)	–	–	> 100 µM (inactive)	–	> 100 µM (inactive)
Cc1c(-c2cc3n(n2)C(c2cccs2)C(C#N)=C(c2ccccc2)N3)c(=O)n(-c2ccccc2)n1C (configuration not stated)	> 100 µM (inactive)	–	> 100 µM (inactive)	–	–	> 89.3 µM (inactive)	–	> 86.3 µM (inactive)	–	–	48.9 µM (inactive)	–	> 86.5 µM (inactive)	–	> 80.2 µM (inactive)	–	24.9 µM (inactive)	> 91.6 µM (inactive)	77.3 µM (inactive)	> 100 µM (inactive)
COc1ccc(C2c3cc4c(cc3OC(Nc3ccccc3)C2C)OCO4)cc1 (configuration not stated)	> 100 µM (inactive)	–	> 100 µM (inactive)	68.1 µM (inactive)	26 µM (inactive)	36.1 µM (inactive)	> 100 µM (inactive)	–	36.1 µM (inactive)	67.8 µM (inactive)	22.2 µM (inactive)	91.6 µM (inactive)	23.6 µM (inactive)	> 100 µM (inactive)	61.1 µM (inactive)	> 100 µM (inactive)	–	–	–	–
CNc1cc2c(c3ccccc13)C(CCl)CN2C(=O)c1cc2cc(OC)c(OC)c(OC)c2[nH]1 (configuration not stated)	0.0052 µM (active)	0.000809 µM (active)	0.00281 µM (active)	0.00881 µM (active)	0.00455 µM (active)	0.00227 µM (active)	0.0074 µM (active)	0.000991 µM (active)	0.00322 µM (active)	0.00309 µM (active)	0.000123 µM (active)	0.00218 µM (active)	0.000822 µM (active)	0.00802 µM (active)	0.000881 µM (active)	0.00243 µM (active)	–	–	–	–
CSC1=N/C(=C\c2ccccc2)C(=O)N1CN1CCCCC1	> 100 µM (inactive)	42.2 µM (inactive)	> 100 µM (inactive)	–	27.4 µM (inactive)	65.5 µM (inactive)	86.3 µM (inactive)	20 µM (inactive)	–	49.7 µM (inactive)	–	99.3 µM (inactive)	24.6 µM (inactive)	36.4 µM (inactive)	> 100 µM (inactive)	88.3 µM (inactive)	–	–	–	–
O=c1[nH]c2ccc([N+](=O)[O-])cc2nc1/C(=N/Nc1ccccc1)C(O)c1ccco1 (configuration not stated)	> 100 µM (inactive)	> 100 µM (inactive)	> 100 µM (inactive)	–	34.7 µM (inactive)	38.8 µM (inactive)	–	–	–	–	25.2 µM (inactive)	> 100 µM (inactive)	–	–	> 100 µM (inactive)	–	41.1 µM (inactive)	42.4 µM (inactive)	18.9 µM (inactive)	> 100 µM (inactive)
CN(C)CCNC(=O)c1cccc2c1Nc1ccccc1S2	13.4 µM (inactive)	–	15.7 µM (inactive)	–	9.57 µM (inactive)	11.8 µM (inactive)	–	16.2 µM (inactive)	–	–	5 µM (inactive)	–	13 µM (inactive)	–	13 µM (inactive)	–	16.2 µM (inactive)	13.7 µM (inactive)	6.76 µM (inactive)	15.6 µM (inactive)
CCOC(=O)NC(=O)c1cn(C2CCCCC2)c(=O)n(C)c1=O	> 100 µM (inactive)	> 100 µM (inactive)	> 100 µM (inactive)	–	> 100 µM (inactive)	> 100 µM (inactive)	–	–	–	–	> 100 µM (inactive)	> 100 µM (inactive)	–	–	> 100 µM (inactive)	–	> 100 µM (inactive)	> 100 µM (inactive)	> 100 µM (inactive)	> 100 µM (inactive)
